Measurements as given in PubChem BioAssay AID2060896 (Molecular Pharmacology Branch, DTP, NCI, 2025).
Values belong to the molecule of their own block, whether it stands above or below them.

Test system: 941728-121-R-J1-PDC complex spheroid viability
Assay: Anticancer human tumor 941728-121-R-J1-PDC patient-derived lung adenocarcinoma cell line growth inhibition [RAS]
Conditions: for viability, T/C: stronger effect = lower value; for IC50: curve of first compound
Source text: RAS pathway inhibitors in Combinations in Complex Spheroids
A high-throughput screen of multi-cell type tumor spheroids was designed to identify active combinations of RAS pathway inhibitors and targeted small molecules. Complex spheroids include a stromal component modeled by human endothelial cells (HUVEC) and fibroblasts modeled by human mesenchymal stem cells (MSCs). The concentration ranges selected for each drug and investigational agent were based upon clinically achievable concentrations if the clinical Cmax of the agent was known.
Compounds. The drugs and investigational agents: abemaciclib (NSC768073), cobimetinib (NSC768068), divarasib (GDC6063, NSC841802), docetaxel (NSC628503), GDC-1971 (RLY-1971, NSC841576), gemcitabine (NSC613327), inavolisib (NSC800729), ipatasertib (NSC767898), KB-0742 (NSC834161), MRTX-1133 (NSC836407), osimertinib (NSC779217), RMC-4630 (NSC839698), RMC-6236 (NSC851965), RMC-6291 (NSC852671), Ro-3306 (NSC812927), sapanisertib (NSC764658), SN-38 (NSC673596), staurosporine (NSC755774), SY5609 (NSC837396), and tovorafenib (DAY101, NSC766906), were obtained from the National Cancer Institute (NCI) Developmental Therapeutics Program Chemical Repository. The FDA-approved anticancer drug set is available from the NCI Developmental Therapeutics Program. […] The stock solutions were prepared in dimethyl sulfoxide (DMSO, Sigma-Aldrich, St. Louis, MO, cat. D2650) at 800-fold the tested concentration and stored at -70 degrees C prior to their use. All drugs and investigational agents were tested over a range starting from a high concentration at or near the clinical Cmax and decreasing in half-log increments. If the clinical Cmax for an agent had not been determined, the highest concentration tested was 10 microM.
Cell Culture. All cells were maintained in an incubator at 37 degrees C and 5% CO2 with 95% humidity. The PDC lines were cultured according to standard operating procedures established by the NCI PDMR. All PDCs were thawed and cultured in Matrigel-coated flasks prepared with a working solution of 1X Ham's F-12 nutrient mix, without supplementation (Invitrogen, Waltham, MA, cat. 11765054), 100 U/mL penicillin-streptomycin (Invitrogen, cat. 15140122), and 2.5% Matrigel (Corning Inc., Corning, NY, cat. 354248) for the first three passages. The 362531-283-R-J2-PDC and 782815-120-R-J1-PDC lines were cultured in 6C/Colon 1B media, which includes advanced DMEM/F-12 (Thermo Fisher Scientific, cat. 12634028), 10 mM HEPES (Thermo Fisher Scientific, cat. 15630080), 1X GlutaMAX supplement (Thermo Fisher Scientific, cat. 35050061), 0.1 mg/mL primocin (InvivoGen, San Diego, CA, cat. ant-pm-2), 10% defined fetal bovine serum, heat inactivated (HyClone Laboratories Inc., Logan, UT, cat. SH30070.03HI), 50% L-WRN conditioned media (ATCC, cat. CRL-3276), 1.25 mM N-Acetyl-L-cysteine (Sigma-Aldrich, cat. A9165), 10 mM nicotinamide (Sigma-Aldrich, cat. N0636), 1X B-27 supplement (Thermo Fisher Scientific, cat. 17504044), 1X N-2 supplement (Thermo Fisher Scientific, cat. 17502048), 50 ng/mL human EGF (Thermo Fisher Scientific, cat. PHG0311), and 10 microM Y-27632 dihydrochloride (Tocris Bioscience, cat. 1254). The K12877-001-R-J1-PDC line was cultured in 6I media, which includes all 6C/Colon 1B media plus 10 ng/mL human FGF-10 (PeproTech, cat. 100-26), 1 ng/mL human FGF-2 (PeproTech, cat. 100-18B), 1 µM prostaglandin E2 (Tocris Bioscience, cat. 2296), […] hydrocortisone (Sigma-Aldrich, cat. H4001), and […] bovine insulin (Sigma-Aldrich, cat. I6634). The K86415-001-R-J1-PDC line was cultured in 6D media, which includes all 6C/Colon 1B media components minus the L-WRN conditioned media. The 485176-168-R4-J1-PDC was cultured in PANC media, which includes all 6C/Colon 1B media plus 100 ng/mL human FGF-10 (PeproTech, cat. 100-26), 500 nM SB-431542 (Selleckchem, cat. S1067), and 10 nM gastrin (Tocris Bioscience, cat. 3006). […]
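Note: spheroids exposed to compounds for 7 days before readout.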
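Throughout, for viability, T/C: 100% = DMSO vehicle control viability.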

Compound: CC(=O)OC12COC1CC(O)C1(C)C(=O)C(O)C3=C(C)C(OC(=O)C(O)C(NC(=O)OC(C)(C)C)c4ccccc4)CC(O)(C(OC(=O)c4ccccc4)C21)C3(C)C (stereo not drawn)
viability, T/C (compound 0.0316 µM): 51.2% [middle of 4 runs] | viability, T/C (compound 0.1 µM): 54.9% [middle of 4 runs] | viability, T/C (compound 0.316 µM): 48.2% [middle of 4 runs] | viability, T/C (compound 1 µM): 49% [middle of 4 runs] | viability, T/C (compound 3.16 µM): 47.4% [middle of 4 runs] | viability, T/C (compound 10 µM): 56.4% [middle of 4 runs]

IC50 (second compound 0.000949 µM): < 31.6 nM | IC50 (second compound 0.003 µM): < 31.6 nM | IC50 (second compound 0.00949 µM): < 31.6 nM | IC50 (second compound 0.03 µM): < 31.6 nM | IC50 (second compound 0.0949 µM): < 31.6 nM | IC50 (second compound 0.3 µM): < 31.6 nM
Compound: CC(C)NCC(C(=O)N1CCN(c2ncnc3c2C(C)CC3O)CC1)c1ccc(Cl)cc1 (stereo not drawn) + CCn1c(-c2cc(N3CCN(C)CC3)cnc2C(C)OC)c2c3cc(ccc31)-c1csc(n1)CC(NC(=O)C1CC1C)C(=O)N1CCCC(N1)C(=O)OCC(C)(C)C2
viability, T/C (second compound 0.000949 µM, first compound 0.0316 µM): 28.7% | viability, T/C (second compound 0.000949 µM, first compound 0.1 µM): 28.3% | viability, T/C (second compound 0.000949 µM, first compound 0.316 µM): 18.8% | viability, T/C (second compound 0.000949 µM, first compound 1 µM): 20.1% | viability, T/C (second compound 0.000949 µM, first compound 3.16 µM): 19% | viability, T/C (second compound 0.000949 µM, first compound 10 µM): 10.4% | viability, T/C (second compound 0.003 µM, first compound 0.0316 µM): 22.7% | viability, T/C (second compound 0.003 µM, first compound 0.1 µM): 23.5% | viability, T/C (second compound 0.003 µM, first compound 0.316 µM): 16.5% | viability, T/C (second compound 0.003 µM, first compound 1 µM): 20.5% | viability, T/C (second compound 0.003 µM, first compound 3.16 µM): 14.6% | viability, T/C (second compound 0.003 µM, first compound 10 µM): 8.01% | viability, T/C (second compound 0.00949 µM, first compound 0.0316 µM): 17.7% | viability, T/C (second compound 0.00949 µM, first compound 0.1 µM): 14.9% | viability, T/C (second compound 0.00949 µM, first compound 0.316 µM): 15.2% | viability, T/C (second compound 0.00949 µM, first compound 1 µM): 12.3% | viability, T/C (second compound 0.00949 µM, first compound 3.16 µM): 9.47% | viability, T/C (second compound 0.00949 µM, first compound 10 µM): 5.47% | viability, T/C (second compound 0.03 µM, first compound 0.0316 µM): 13.1% | viability, T/C (second compound 0.03 µM, first compound 0.1 µM): 14% | viability, T/C (second compound 0.03 µM, first compound 0.316 µM): 14.2% | viability, T/C (second compound 0.03 µM, first compound 1 µM): 11.3% | viability, T/C (second compound 0.03 µM, first compound 3.16 µM): 8.42% | viability, T/C (second compound 0.03 µM, first compound 10 µM): 4.92% | viability, T/C (second compound 0.0949 µM, first compound 0.0316 µM): 12.4% | viability, T/C (second compound 0.0949 µM, first compound 0.1 µM): 13.6% | viability, T/C (second compound 0.0949 µM, first compound 0.316 µM): 11.9% | viability, T/C (second compound 0.0949 µM, first compound 1 µM): 12.1% | viability, T/C (second compound 0.0949 µM, first compound 3.16 µM): 5.65% | viability, T/C (second compound 0.0949 µM, first compound 10 µM): 5.14% | viability, T/C (second compound 0.3 µM, first compound 0.0316 µM): 11.1% | viability, T/C (second compound 0.3 µM, first compound 0.1 µM): 14.2% | viability, T/C (second compound 0.3 µM, first compound 0.316 µM): 13.5% | viability, T/C (second compound 0.3 µM, first compound 1 µM): 10% | viability, T/C (second compound 0.3 µM, first compound 3.16 µM): 8.91% | viability, T/C (second compound 0.3 µM, first compound 10 µM): 4.65%
